One data set concerns AtMIN7. Briefly: Proteasome/protease inhibitors on HopM1-mediated destabilization of AtMIN7 in N. benthamiana leaves (immunoblot). As to conditions: AtMIN7:HA and 6×His:HopM1 1-712 co-expressed. The class given is cell-based, Arabidopsis thaliana. As for the experimental part: AtMIN-HA and 6×His-HopM1 proteins were detected using the HA and 6×His epitope antibodies, respectively. AtMIN7-HA was pulled down with HopM1-300 but not with 6×His-HopM1301-712; and (C) Western blot and reverse transcription polymerase chain reaction analyses of HopM1-dependent destabilization of AtMIN7 in Arabidopsis plants. Leaves of Col-0 gl1 plants were infiltrated with water or 1×10^8 CFUs per milliliter of DCEL mutant bacteria with or without pORF43 and harvested 10 hours later. The endogenousAtMIN7 protein—detected with the use of a rabbit polyclonal AtMIN7 antibody—was absent in leaves infiltrated with DCEL mutant bacteria (pORF43) that produce HopM1; however, the AtMIN7 transcript level was not reduced. […] AtMIN7:HA and 6×His:HopM11-712 proteins were detected with HA and 6×His epitope antibodies, respectively.
N. benthamiana plants were transiently transformed with HopM1 and AtMIN proteins. In brief, fully expanded N. benthamiana leaves were co-infiltrated with Agrobacterium tumefaciens C58 C1 (for an example of co-infiltration techniques, see, Hellens, et al. (2005) Plant Methods, 1:13; herein incorporated by reference) comprising plasmids and genes described herein (for example, see, Bechtold, et al. (1993) Comptes Rendus De L Academie Des Sciences Serie Iii-Sciences De La Vie-Life Sciences 316(10):1194-1199; herein incorporated by reference). […]

In data set [1] the test system is transgenic plants expressing full-length HopM1. Briefly: DEX spraying of transgenic plants expressing full-length HopM1. The class given is in vivo, Arabidopsis.
In another data set the target is T1, AtMIN7-HA (Arabidopsis thaliana, UniProt F4IXW2, DEL212-213/INS429[…]).
T1 construct: expressed in transfected cells; host or cells: Nicotiana benthamiana leaves, Agrobacterium tumefaciens C58C1 co-infiltration (pBI121-AtMIN or pBAR1-AtMIN, CaMV 35S promoter)
Briefly: Protein pull-down assay in N. benthamiana leaves. Format: binding. As to conditions: Ni-NTA pull-down, immunoblot. The source says:
N. benthamiana plants were transiently transformed with HopM1 and AtMIN proteins. In brief, fully expanded N. benthamiana leaves were co-infiltrated with Agrobacterium tumefaciens C58 C1 (for an example of co-infiltration techniques, see, Hellens, et al. (2005) Plant Methods, 1:13; herein incorporated by reference) comprising plasmids and genes described herein (for example, see, Bechtold, et al. (1993) Comptes Rendus De L Academie Des Sciences Serie Iii-Sciences De La Vie-Life Sciences 316(10):1194-1199; herein incorporated by reference).
Protein pull-down analysis methods: N. benthamiana leaf discs were homogenized in lysis buffer (50 mM Tris-HCl pH=8.0, 250 mM NaCl, 10 mM β-mercaptoethanol, 1% Triton X100, 1 mM PMSF, plant protease inhibitor cocktail [Sigma Co.]). Total protein extracts were collected after centrifugation of the homogenate at 20,000-×g for 15 min at 4° C. to remove insoluble materials. The supernatant was incubated with Ni-NTA agarose beads (Qiagen) with gentle shaking for 1 hour at 4° C., followed by centrifugation at 15,000-×g for 1 min to pull down 6×His-HopM1 and its interacting proteins. Beads were then washed three times with lysis buffer and resuspended in 1×SDS-PAGE sample buffer for SDS-PAGE gel and/or immunoblot analyses. […] AtMIN10-HA was detected using the HA epitope antibody.

A further data set has as its system Pst DC3000 ΔCEL mutant. Briefly: Bacterial multiplication and disease symptoms in HopM1 transgenic Arabidopsis plants. Format: in vivo, Pseudomonas syringae. As to conditions: protein expressed in transgenic Arabidopsis (Col-0 gl1), DEX-induced. The procedure:
Following inoculation, infected plants were monitored daily over a 3- to 4-day period for symptom development and bacterial multiplication. For experiments described in FIGS. 1 and 5, plants were sprayed with 30 μM dexamethasone (DEX) 24 h before bacterial inoculation (1×10^6 cfu/ml).
Leaves were harvested and surface sterilized as follows: 1) whole leaves were removed from a host plant and gently mixed in a 70% ethanol solution for 1 minute. Leaves were blotted briefly on paper towels then rinsed in sterile distilled water for 1 minute, then blotted dry on paper towels. Leaf disks were excised from leaves with a 0.5 cm^2 or smaller cork borer, depending on the size of the sample leaves; 2) leaf disks from the leaves of 2 or more independent replicate plants were pooled for a single tissue sample and placed in a 1.5-mL microfuge tube with 100 μL sterile distilled water, the amount of leaf tissue per tube was recorded as leaf surface area. Three or more samples were harvested for each time point. […] The number of serial dilutions necessary to get countable colonies were determined for each sample, however dilutions to 10^−7 were usually sufficient for any bacterial strain; 7) The samples were plated on the appropriate medium (e.g., Low salt Luria Bertani) supplemented with the necessary antibiotics to select for the specific inoculated bacterial strain. […]

Residues, ends and D or L forms follow the SMILES beside them. *: point of attachment. Cbz = O=C(OCc1ccccc1)* Bounds are passed on as bounds.

These results are taken from patent publication US8058507B2, “HOPM1 mediated disease resistance to Pseudomonas syringae in Arabidopsis” (priority 2007, dated 2011).

T1 sequence (F4IXW2 with tags, fused parts or gaps DEL212-213/INS429[withheld]): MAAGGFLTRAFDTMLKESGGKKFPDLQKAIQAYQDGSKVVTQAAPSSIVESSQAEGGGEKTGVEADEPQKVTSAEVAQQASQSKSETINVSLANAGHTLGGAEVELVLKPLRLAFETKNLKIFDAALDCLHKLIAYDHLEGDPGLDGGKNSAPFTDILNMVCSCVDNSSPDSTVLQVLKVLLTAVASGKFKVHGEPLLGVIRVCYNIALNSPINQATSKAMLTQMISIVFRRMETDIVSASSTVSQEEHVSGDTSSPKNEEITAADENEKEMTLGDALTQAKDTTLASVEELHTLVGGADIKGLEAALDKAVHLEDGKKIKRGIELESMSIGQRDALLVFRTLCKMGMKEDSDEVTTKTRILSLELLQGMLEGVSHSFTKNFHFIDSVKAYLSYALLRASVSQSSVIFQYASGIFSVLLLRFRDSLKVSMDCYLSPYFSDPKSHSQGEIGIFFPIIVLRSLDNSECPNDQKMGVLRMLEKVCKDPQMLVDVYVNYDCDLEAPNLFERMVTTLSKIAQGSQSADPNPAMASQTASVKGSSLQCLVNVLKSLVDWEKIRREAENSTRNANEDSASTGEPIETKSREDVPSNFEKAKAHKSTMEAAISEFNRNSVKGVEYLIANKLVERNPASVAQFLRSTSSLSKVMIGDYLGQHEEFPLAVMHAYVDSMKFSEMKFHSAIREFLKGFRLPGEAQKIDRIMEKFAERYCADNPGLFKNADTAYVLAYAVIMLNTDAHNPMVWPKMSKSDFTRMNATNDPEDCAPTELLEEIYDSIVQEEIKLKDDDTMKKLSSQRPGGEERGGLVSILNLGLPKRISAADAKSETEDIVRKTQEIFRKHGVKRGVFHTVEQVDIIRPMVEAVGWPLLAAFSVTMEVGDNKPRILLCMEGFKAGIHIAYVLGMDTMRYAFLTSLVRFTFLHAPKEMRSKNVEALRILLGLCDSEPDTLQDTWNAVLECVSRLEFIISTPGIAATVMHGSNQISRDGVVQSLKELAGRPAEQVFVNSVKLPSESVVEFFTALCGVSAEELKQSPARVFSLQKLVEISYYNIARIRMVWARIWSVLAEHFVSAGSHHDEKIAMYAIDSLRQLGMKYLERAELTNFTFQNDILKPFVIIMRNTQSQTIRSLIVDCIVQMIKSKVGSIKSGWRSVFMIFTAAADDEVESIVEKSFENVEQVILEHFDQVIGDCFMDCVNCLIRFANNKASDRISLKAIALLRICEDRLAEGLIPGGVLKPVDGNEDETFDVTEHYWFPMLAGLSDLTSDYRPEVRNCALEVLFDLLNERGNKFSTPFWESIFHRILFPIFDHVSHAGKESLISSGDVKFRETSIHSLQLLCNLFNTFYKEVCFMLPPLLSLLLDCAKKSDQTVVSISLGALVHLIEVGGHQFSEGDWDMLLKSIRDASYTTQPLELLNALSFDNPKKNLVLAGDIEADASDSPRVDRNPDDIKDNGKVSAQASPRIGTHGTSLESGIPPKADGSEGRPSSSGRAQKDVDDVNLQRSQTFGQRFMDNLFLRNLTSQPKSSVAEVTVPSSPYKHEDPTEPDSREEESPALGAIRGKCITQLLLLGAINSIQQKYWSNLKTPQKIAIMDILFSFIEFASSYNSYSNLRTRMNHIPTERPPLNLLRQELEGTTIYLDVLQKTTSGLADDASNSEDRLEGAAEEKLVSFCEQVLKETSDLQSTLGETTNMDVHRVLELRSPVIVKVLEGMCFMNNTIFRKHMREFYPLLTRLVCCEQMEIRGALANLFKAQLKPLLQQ

On to `CC[C@H](C)[C@H](NC(=O)[C@H]([C@@H](C)CC)N(C)C(C)=O)C(=O)N[C@H](C(=O)N[C@@H](CC(C)C)C(=O)[C@@]1(C)CO1)[C@@H](C)O` [epoxomicin], for which the “HopM1-mediated destabilization of AtMIN7” value in the data set on AtMIN7 is “blocked”.

In the case of `CC(C)C[C@@H](C=O)NC(=O)[C@H](CC(C)C)NC(=O)[C@H](CC(C)C)NC(=O)OCc1ccccc1` [MG132] (Cbz-Leu-Leu-Leu-aldehyde), in the data set with AtMIN7, the “HopM1-mediated destabilization of AtMIN7” value is reported as “blocked”.

For the molecule `C[C@@H]1C[C@H]2[C@@H]3CCC4=CC(=O)C=C[C@]4(C)[C@@]3(F)[C@@H](O)C[C@]2(C)[C@@]1(O)C(=O)CO` [DEX, dexamethasone], the leaf necrosis result in data set [1] (0.003 μM spray) was “did not induce leaf necrosis”; in data set [1] (30 μM DEX spray) it was “induced rapid leaf necrosis”. The “time to leaf necrosis” value in data set [1] (30 μM DEX spray) is on record as no more than 10 h.

B1: HopM1301-712: HopM1 truncated derivative, amino acids 301-712 (protein)
chain: GPIVAAAVPQFLSSMTHLGYVRLSTSDKLRDTIPETSSDANMLKASIIGMVAGIAHETVNSVVKPMFQAALQKTGLNERLNMVPMKAVDTNTVIPDPFELKSEHGELVKKTPEEVAQDKAFVKSERALLNQKKVQGSSTHPVGELMAYSAFGGSQAVRQMLNDVHQINGQTLSARALASGFGGAVSASSQTLLQLKSNYVDPQGRKIPVFTPDRAESDLKKDLLKGMDLREPSVRTTFYSKALSGIQSSALTSALPPVTAQAEGASGTLSAGAILRNMALAATGSVSYLSTLYTNQSVTAEAKALKAAGMGGATPMLDRTETALNNIRHPNRESLPHTFQKSTLSGIPRVAENAYHMGRGALQLPTQMAVDTVRVVDEGVLNAVASAREALKQPTKDDDALRALEEGLLDPR
modifications: left off: small tags and cut ends
In the case of B1, the “physical interaction with AtMIN7-HA” value with AtMIN7-HA was “no interaction”.

B2: HopM1101-712: HopM1 truncated derivative lacking the first 100 aa (SEQ ID NO:98) (protein, listed as Pseudomonas syringae)
chain: LLQAFKAEHGTAPVSGAPMISSRAALLIGSLLQAEPLPFEVMAEKLSPERYQLKQFQGSDLQQRLEKFAQPGQIPDKAEVGQLIKGFAQSVADQLEHFQLMHDASPATVGQHAKADKATLAVSQTALGEYAGRASKAIGEGLSNSIASLDEHISALDLTLQDAEQGNKESLHADRQALVDAKTTLVGLHADFVKSPEAKRLASVAAHTQLDNVVSDLVTARNTVGGWKGAGPIVAAAVPQFLSSMTHLGYVRLSTSDKLRDTIPETSSDANMLKASIIGMVAGIAHETVNSVVKPMFQAALQKTGLNERLNMVPMKAVDTNTVIPDPFELKSEHGELVKKTPEEVAQDKAFVKSERALLNQKKVQGSSTHPVGELMAYSAFGGSQAVRQMLNDVHQINGQTLSARALASGFGGAVSASSQTLLQLKSNYVDPQGRKIPVFTPDRAESDLKKDLLKGMDLREPSVRTTFYSKALSGIQSSALTSALPPVTAQAEGASGTLSAGAILRNMALAATGSVSYLSTLYTNQSVTAEAKALKAAGMGGATPMLDRTETALNNIRHPNRESLPHTFQKSTLSGIPRVAENAYHMGRGALQLPTQMAVDTVRVVDEGVLNAVASAREALKQPTKDDDALRALEEGLLDPR
Turning to B2, the “complementation of the virulence defect (multiplication, disease symptoms)” value with Pst DC3000 ΔCEL mutant is “partially restored”.
